Source: the supplement of paper PMC10307832

Legend:
Assay in all cases: relative viability (nuclei count vs DMSO), 5 days (fraction); higher = more cells survive
[1] = compound: COc1cc2nc(N3CCCN(C)CC3)nc(NC3CCN(Cc4ccccc4)CC3)c2cc1OC + Cc1cc(Nc2cc(N3CCN(C)CC3)nc(Sc3ccc(NC(=O)C4CC4)cc3)n2)n[nH]1 [Tozasertib] (partner 0.1 µM)
Method in brief: (§1)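 Nuclei were stained with Hoechst during a one-step fixation (final 0.05% Triton X-100, 1% formaldehyde, 1 ug/ml Hoechst) carried out 5 days after dosing, then counted on 4× images. The cells, lung cancer lines in 1536-well plates, had been dosed by pin tool the day after seeding with one drug alone or a fixed anchor-drug dose plus five library-drug doses (not always all listed) in √10 steps. Relative viability is the nuclei count in treated wells divided by that in vehicle wells, and each value is the median of duplicate plates.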

AZD6482 + Bortezomib = compound: Cc1cc([C@@H](C)Nc2ccccc2C(=O)O)c2nc(N3CCOCC3)cc(=O)n2c1 [AZD6482] + CC(C)C[C@H](NC(=O)[C@H](Cc1ccccc1)NC(=O)c1cnccn1)B(O)O [Bortezomib] (partner 0.002 µM)
Method in brief: as §1

AZD6482 + Foretinib = compound: Cc1cc([C@@H](C)Nc2ccccc2C(=O)O)c2nc(N3CCOCC3)cc(=O)n2c1 [AZD6482] + COc1cc2c(Oc3ccc(NC(=O)C4(C(=O)Nc5ccc(F)cc5)CC4)cc3F)ccnc2cc1OCCCN1CCOCC1 [Foretinib] (partner 0.25 µM)
Method in brief: as §1

AZD6482 + Linsitinib = compound: Cc1cc([C@@H](C)Nc2ccccc2C(=O)O)c2nc(N3CCOCC3)cc(=O)n2c1 [AZD6482] + C[C@]1(O)C[C@@H](c2nc(-c3ccc4ccc(-c5ccccc5)nc4c3)c3c(N)nccn32)C1 [Linsitinib] (partner 1 µM)
Method in brief: as §1

Cell Line | relative viability ([1]; first compound 0.2 µM) | relative viability ([1]; first compound 0.6325 µM) | relative viability ([1]; first compound 2 µM) | relative viability ([1]; first compound 6.325 µM) | relative viability (AZD6482 + Bortezomib; first compound 0.08 µM) | relative viability (AZD6482 + Bortezomib; first compound 0.253 µM) | relative viability (AZD6482 + Bortezomib; first compound 0.8 µM) | relative viability (AZD6482 + Bortezomib; first compound 2.53 µM) | relative viability (AZD6482 + Bortezomib; first compound 8 µM) | relative viability (AZD6482 + Foretinib; first compound 0.08 µM) | relative viability (AZD6482 + Foretinib; first compound 0.253 µM) | relative viability (AZD6482 + Foretinib; first compound 0.8 µM) | relative viability (AZD6482 + Foretinib; first compound 2.53 µM) | relative viability (AZD6482 + Foretinib; first compound 8 µM) | relative viability (AZD6482 + Linsitinib; first compound 0.08 µM) | relative viability (AZD6482 + Linsitinib; first compound 0.253 µM) | relative viability (AZD6482 + Linsitinib; first compound 0.8 µM) | relative viability (AZD6482 + Linsitinib; first compound 2.53 µM) | relative viability (AZD6482 + Linsitinib; first compound 8 µM)
NCI-H1437 | 0.442 | 0.433 | 0.469 | 0.461 | 0.466 | 0.385 | 0.592 | 0.484 | 0.374 | 1.2 | 1.33 | 1.31 | 1.13 | 0.923 | 0.943 | 1.08 | 0.998 | 0.574 | 0.657
NCI-H1651 | 0.846 | 0.75 | 1.01 | 0.668 | 0.918 | 0.941 | 0.905 | 0.809 | 0.825 | 0.624 | 0.699 | 0.736 | 0.566 | 0.636 | 0.674 | 0.663 | 0.733 | 0.63 | 0.591
NCI-H1666 | 0.569 | 0.727 | 0.635 | 0.625 | 0.515 | 0.765 | 0.737 | 0.556 | 0.616 | 0.914 | 0.868 | 1.03 | 0.785 | 0.989 | 0.536 | 0.586 | 0.63 | 0.589 | 0.574
NCI-H1734 | 0.277 | 0.249 | 0.26 | 0.217 | 0.791 | 0.893 | 0.977 | 0.525 | 0.556 | 0.829 | 0.788 | 0.875 | 0.604 | 0.671 | 0.666 | 0.589 | 0.701 | 0.384 | 0.554
NCI-H1755 | 0.668 | 0.464 | 0.592 | 0.557 | 0.837 | 0.962 | 0.434 | 0.639 | 0.74 | 0.807 | 0.834 | 0.851 | 0.669 | 0.603 | 0.87 | 0.864 | 0.75 | 0.497 | 0.467
NCI-H1915 | 0.441 | 0.465 | 0.464 | 0.426 | 0.861 | 0.86 | 1.04 | 0.849 | 1.05 | 1.05 | 1.02 | 1.1 | 1 | 1.09 | 0.982 | 1.1 | 1.09 | 1.03 | 1.1
NCI-H1975 | 0.797 | 0.804 | 0.999 | 0.832 | 0.345 | 0.375 | 0.384 | 0.323 | 0.301 | 0.889 | 0.872 | 0.951 | 0.709 | 0.558 | 0.748 | 0.938 | 0.874 | 0.739 | 0.592
NCI-H1993 | 0.583 | 0.622 | 0.604 | 0.625 | 0.848 | 0.94 | – | – | 0.852 | 0.674 | 0.745 | 0.846 | 0.558 | 0.562 | 0.759 | 0.775 | – | – | 0.654
NCI-H2009 | 0.761 | 0.727 | 0.855 | 0.656 | 0.985 | 1.04 | 1.04 | 0.601 | 0.783 | 1.12 | 1.24 | 1.24 | 0.83 | 0.747 | 0.911 | 1.18 | 1.16 | 0.68 | 0.795
NCI-H2023 | 0.368 | 0.301 | 0.46 | 0.109 | 0.984 | 0.742 | 0.874 | 0.623 | 0.679 | 0.83 | 0.757 | 1.02 | 0.477 | 0.518 | 0.373 | 0.337 | 0.322 | 0.199 | 0.234
NCI-H2085 | 0.884 | 0.895 | 0.971 | 0.612 | 0.824 | 0.659 | 0.766 | 0.393 | 0.458 | 0.62 | 0.637 | 0.338 | 0.308 | 0.29 | 0.453 | 0.422 | 0.327 | 0.26 | 0.467
